# Patent US20250136576A1, “Heterocyclic Compounds and Uses Thereof” (ACEA Therapeutics, Inc., priority 2021, published 2025)
# Like-named read-outs stand apart in the source and are kept apart here.
# What was measured:
# Assay type in all cases: cell-based
# [1] = tested on: MV-4-11 (AML) cells; test: Cell proliferation and growth inhibition assay (CCK-8) in MV-4-11; details: Homo sapiens, MV4-11; MV-4-11 cells, treated with test compounds for 72 hrs, CCK-8 viability
# Protocol: MV-4-11 and H1975 cells were obtained from the American Type Culture Collection and KM12-luc cells were obtained from JCRB Cell Bank. All cell lines were maintained at 37° C. with 5% C02, in media supplemented with 10% fetal bovine serum and penicillin (100 units/mL) and streptomycin (100 μg/mL). MV-4-11 cells were maintained in Iscove's Modified Dubecco's Medium, H1975 cells were cultured with RPMI 1640 media, and KM12-luc cells were maintained in Dulbecco's Modification of Eagle's Medium. CCK-8 reagent was obtained from Yeasen.
# Cell proliferation was assessed by CCK-8 assay (Yeasen) per the manufacturer's instructions. The MV-4-11 (AML), H1975, and KM12-luc cells were seeded at 30,000, 3,000 and 2,500 cells per well onto 96-well plates, and after a 24 h incubation, the cells were treated with test compounds for 72 hrs. Cell viability was assayed by incubating the cells with CCK-8 reagent for 1-4 hrs. Absorbance was measured at OD450 using the Beckman DTX880. The data was calculated using GraphPad Prism version 6.01. The IC50 values were fitted using a non-linear regression model with a sigmoidal dose response.
# [2] = tested on: KM12-luc cells; test: Cell proliferation and growth inhibition assay (CCK-8) in KM12-luc; details: KM12-luc cells, treated with test compounds for 72 hrs, CCK-8 viability, read-out: NTRK IC50 in KM12-luc
# Procedure, shortened: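 Cells were grown at 37 °C, 5% CO2 with 10% FBS: MV-4-11 in IMDM, H1975 in RPMI 1640, KM12-luc in DMEM. Viability was read by CCK-8 (1-4 hrs reagent incubation, absorbance at OD450). IC50 came from a non-linear sigmoidal dose-response fit.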
# [3] = tested on: H1975 cells; test: Cell proliferation and growth inhibition assay (CCK-8) in H1975; details: Homo sapiens, NCI-H1975, 72 h, treated with test compounds for 72 hrs, CCK-8 viability, read-out: EGFR IC50 in H1975
# Procedure, shortened: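 Cells seeded at 30,000 (MV-4-11, IMDM) or 3,000 (H1975, RPMI 1640) per well, left 24 h, then compound-treated 72 h at 37 °C, 5% CO2, 10% FBS. Viability read by CCK-8 (1–4 h) at OD450. IC50 from sigmoidal dose-response nonlinear regression.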
SMILES,IC50 [1] [nM],IC50 [3] [nM],"IC50 ([2]; KM12-Luc, 72 h) [nM]",IC50 [2] [nM]
"CC(=O)Nc1cc(Nc2ncc(Cl)c(-c3cn(C)c4ccccc34)n2)ccc1N1CCC(N(C)C)C1 (stereo not drawn) [Compound 402, N-(5-((5-chloro-4-(1-methyl-1H-indol-3-yl)pyrimidin-2-yl)amino)-2-(3-(dimethylamino)pyrrolidin-1-yl)phenyl)acetamide]",64.2,1210,27.4,
"CC(=O)Nc1cc(Nc2ncc(C(F)(F)F)c(-c3c[nH]c4c(C)cccc34)n2)ccc1N1CC[C@@H](N(C)C)C1 [Compound R-366, (R)—N-(2-(3-(dimethylamino)pyrrolidin-1-yl)-5-((4-(7-methyl-1H-indol-3-yl)-5-(trifluoromethyl)pyrimidin-2-yl)amino)phenyl)acetamide]",5.3,88.6,5.2,
"CC(=O)Nc1cc(Nc2ncc(Cl)c(-c3c[nH]c4ccccc34)n2)ccc1N1CCC(N(C)C)C1 (stereo not drawn) [Compound 444, N-(5-((5-chloro-4-(1H-indol-3-yl)pyrimidin-2-yl)amino)-2-(3-(dimethylamino)pyrrolidin-1-yl)phenyl)acetamide]",2.9,299,5.5,
"COc1cccc2c(-c3nc(Nc4ccc(N5CC[C@H](N(C)C)C5)c(NC(C)=O)c4)ncc3C(F)(F)F)c[nH]c12 [Compound S-382a, (S)—N-(2-(3-(dimethylamino)pyrrolidin-1-yl)-5-((4-(7-methoxy-1H-indol-3-yl)-5-(trifluoromethyl)pyrimidin-2-yl)amino)phenyl)acetamide]",3.7,134,5.3,
"CC(=O)Nc1cc(Nc2ncc(Cl)c(-c3cn(C)c4c(C)cccc34)n2)ccc1N1CC[C@H](N(C)C)C1 [Compound S-426, (S)—N-(5-((5-chloro-4-(1,7-dimethyl-1H-indol-3-yl)pyrimidin-2-yl)amino)-2-(3-(dimethylamino)pyrrolidin-1-yl)phenyl)acetamide]",4.2,189,,2.7
"COc1cnc(Nc2ccc(OCCN(C)C)c(NC(C)=O)c2)nc1-c1c[nH]c2c(C)cccc12 [Compound 284, N-(2-(2-(dimethylamino)ethoxy)-5-((5-methoxy-4-(7-methyl-1H-indol-3-yl)pyrimidin-2-yl)amino)phenyl)acetamide]",63.8,1030,15,
"COc1cccc2c(-c3nc(Nc4ccc(N5CC[C@@H](N(C)C)C5)c(NC(C)=O)c4)ncc3C(F)(F)F)c[nH]c12 [Compound R-382, (R)—N-(2-(3-(dimethylamino)pyrrolidin-1-yl)-5-((4-(7-methoxy-1H-indol-3-yl)-5-(trifluoromethyl)pyrimidin-2-yl)amino)phenyl)acetamide]",6.3,128,9.2,
"CC(=O)Nc1cc(Nc2ncc(C(F)(F)F)c(-c3c[nH]c4c(C)cccc34)n2)ccc1N1CC[C@H](N(C)C)C1 [Compound S-366, (S)—N-(2-(3-(dimethylamino)pyrrolidin-1-yl)-5-((4-(7-methyl-1H-indol-3-yl)-5-(trifluoromethyl)pyrimidin-2-yl)amino)phenyl)acetamide]",3,97.8,3.1,
"COc1cccc2c(-c3nc(Nc4ccc(N5CC[C@@H](N(C)C)C5)c(N)c4)ncc3C(F)(F)F)c[nH]c12 [Compound R-383, (R)-4-(3-(dimethylamino)pyrrolidin-1-yl)-N^1-(4-(7-methoxy-1H-indol-3-yl)-5-(trifluoromethyl)pyrimidin-2-yl)benzene-1,3-diamine]",4.7,129,8.5,

# More lines, main results first:
IC50 [1] [nM],IC50 [3] [nM],SMILES,"IC50 ([2]; KM12-Luc, 72 h) [nM]",IC50 [2] [nM]
5.9,120,"Cc1cccc2c(-c3nc(Nc4ccc(N(C)CCN(C)C)c(N)c4)ncc3C(F)(F)F)c[nH]c12 [Compound 359, N^1-(2-(dimethylamino)ethyl)-N^1-methyl-N^4-(4-(7-methyl-1H-indol-3-yl)-5-(trifluoromethyl)pyrimidin-2-yl)benzene-1,2,4-triamine]",5.5,
11.1,366,"CCN(CCN(C)C)c1ccc(Nc2ncc(C(F)(F)F)c(-c3c[nH]c4c(F)cccc34)n2)cc1N [Compound 337, N^1-(2-(dimethylamino)ethyl)-N^1-ethyl-N^4-(4-(7-fluoro-1H-indol-3-yl)-5-(trifluoromethyl)pyrimidin-2-yl)benzene-1,2,4-triamine]",10.4,
5.3,52.5,"COc1cccc2c(-c3nc(Nc4ccc(N(C)CCN(C)C)c(NC(C)=O)c4)ncc3C(F)(F)F)c[nH]c12 [Compound 374, N-(2-((2-(dimethylamino)ethyl)(methyl)amino)-5-((4-(7-methoxy-1H-indol-3-yl)-5-(trifluoromethyl)pyrimidin-2-yl)amino)phenyl)acetamide]",3.7,
3.4,92.1,"CC(=O)Nc1cc(Nc2ncc(C(F)(F)F)c(-c3c[nH]c4c(F)cccc34)n2)ccc1N(C)CCN(C)C [Compound 334, N-(2-((2-(dimethylamino)ethyl)(methyl)amino)-5-((4-(7-fluoro-1H-indol-3-yl)-5-(trifluoromethyl)pyrimidin-2-yl)amino)phenyl)acetamide]",3,
29.7,772,"CCN(CCN(C)C)c1ccc(Nc2ncc(C(F)(F)F)c(-c3c[nH]c4cccc(F)c34)n2)cc1N [Compound 319, N^1-(2-(dimethylamino)ethyl)-N^1-ethyl-N^4-(4-(4-fluoro-1H-indol-3-yl)-5-(trifluoromethyl)pyrimidin-2-yl)benzene-1,2,4-triamine]",19.1,
2.6,77.3,"CC(=O)Nc1cc(Nc2ncc(C(F)(F)F)c(-c3c[nH]c4c(F)cccc34)n2)ccc1OCCN(C)C [Compound 343, N-(2-(2-(dimethylamino)ethoxy)-5-((4-(7-fluoro-1H-indol-3-yl)-5-(trifluoromethyl)pyrimidin-2-yl)amino)phenyl)acetamide]",4.3,
4.4,47,"CC(=O)Nc1cc(Nc2ncc(C(F)(F)F)c(-c3c[nH]c4c(C)cccc34)n2)ccc1N(C)CCN(C)C [Compound 358, N-(2-((2-(dimethylamino)ethyl)(methyl)amino)-5-((4-(7-methyl-1H-indol-3-yl)-5-(trifluoromethyl)pyrimidin-2-yl)amino)phenyl)acetamide]",3.1,
4.2,152,"COc1cccc2c(-c3nc(Nc4ccc(N(C)CCN(C)C)c(N)c4)ncc3C(F)(F)F)c[nH]c12 [Compound 375, N^1-(2-(dimethylamino)ethyl)-N^4-(4-(7-methoxy-1H-indol-3-yl)-5-(trifluoromethyl)pyrimidin-2-yl)-N^1-methylbenzene-1,2,4-triamine]",4.1,
3.1,75.4,"CN(C)CCN(C)c1ccc(Nc2ncc(C(F)(F)F)c(-c3c[nH]c4c(F)cccc34)n2)cc1N [Compound 335, N^1-(2-(dimethylamino)ethyl)-N^1-methyl-N^4-(4-(7-fluoro-1H-indol-3-yl)-5-(trifluoromethyl)pyrimidin-2-yl)benzene-1,2,4-triamine]",6.1,
